Assay [1] relates to T. cruzi amastigote (Td Tomato-modified) in Vero cells. Description: In vitro IC50 measurement of T. cruzi amastigote killing using Td Tomato-modified T. cruzi. Type of assay: cell-based. The settings on record: Trypanosoma cruzi, 72 h, fluorescence, read-out: IC50: I Org. amastigote Growth T. cruzi 3 d. The method in brief: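 Vero cells infected with Td Tomato-expressing T. cruzi, treated with compound at 5 uM to 5 nM final, incubated 72 h at 37 °C. Fluorescence (Ex 544/Em 612 nm) read at Day 0 and Day 3, Day 0 subtracted; IC50 and IC90 by nonlinear regression.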

The subject of assay [2] is IL3000 T. congolense (drug sensitive) strain. Description: In vitro Alamar Blue 72 h drug sensitivity assay for T. congolense. The format is cell-based, Trypanosoma congolense. The conditions noted are these: Trypanosoma congolense, 72 h, bloodstream form, 69 h + 3 h Resazurin, 34° C., read-out: IC50: I Org. Growth T. congolense 3 d. The procedure, abridged: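 Bloodstream-form trypanosomes in HMI medium with 20% bovine serum were exposed to compounds for 69 h at 34° C, 5% CO2, then resazurin for another 3 h. Fluorescence read at ex 536/em 588 nm; IC50 from 11-point sigmoidal dose-response curves, at least three independent runs.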

For the compound `Cc1c(C(=O)NC2(C(=O)OCCN3CCOCC3)COC2)ccc2c1B(O)OC2` [Example 6-222, 2-morpholinoethyl 3-(1-hydroxy-7-methyl-1,3-dihydrobenzo[c][1,2]oxaborole-6-carboxamido)oxetane-3-carboxylate], the IC50 was at least 1000 nM in assay [1] and 10 to 5000 nM in assay [2].

`Cc1c(C(=O)N[C@H](C(=O)OCc2cccc(N3CCOCC3)n2)C(C)C)ccc2c1B(O)OC2` [Example 6-197, (6-morpholinopyridin-2-yl)methyl (1-hydroxy-7-methyl-1,3-dihydrobenzo[c][1,2]oxaborole-6-carbonyl)-L-valinate]: the values for the IC50 in assay [1] and in assay [2] were at most 20 nM and under 0.5 nM, respectively.

With `Cc1c(C(=O)N[C@H](C(=O)OCc2ccc(F)c(C(F)(F)F)c2)C(C)C)ccc2c1B(O)OC2` [Example 6-049, 4-Fluoro-3-(trifluoromethyl)benzyl (1-hydroxy-7-methyl-1,3-dihydrobenzo[c][1,2]oxaborole-6-carbonyl)-L-valinate], the IC50 in assay [1] was at most 20 nM; in assay [2], under 0.5 nM.

For `Cc1c(C(=O)N[C@H](C(=O)OCc2ccc(C(F)(F)F)cn2)C(C)C)ccc2c1B(O)OC2` [Example 6-171, (5-(trifluoromethyl)pyridin-2-yl)methyl (1-hydroxy-7-methyl-1,3-dihydrobenzo[c][1,2]oxaborole-6-carbonyl)-L-valinate], the IC50 in assay [1] is at most 20 nM; in assay [2], under 0.5 nM.

For `Cc1c(C(=O)N[C@H](C(=O)OCc2ccc(S(=O)(=O)N3CCN(C)CC3)cc2)C(C)C)ccc2c1B(O)OC2` [Example 6-085, 4-((4-Methylpiperazin-1-yl)sulfonyl)benzyl (1-hydroxy-7-methyl-1,3-dihydrobenzo[c][1,2]oxaborole-6-carbonyl)-L-valinate], the IC50 in assay [1] fell in the range of 21 to 999 nM; in assay [2] it was 0.51 to 9.99 nM.

Regarding `Cc1c(C(=O)N[C@H](C(=O)OCC2CCC(F)(F)CC2)C(C)C)ccc2c1B(O)OC2` [Example 6-154, (4,4-Difluorocyclohexyl)methyl (1-hydroxy-7-methyl-1,3-dihydrobenzo[c][1,2]oxaborole-6-carbonyl)-L-valinate], the 50% inhibitory concentration (IC50) in assay [1] was at most 20 nM; in assay [2], under 0.5 nM.

On to `Cc1c(C(=O)N[C@H](C(=O)OCc2ccc(S(C)(=O)=O)c(CN(C)C)c2)C(C)C)ccc2c1B(O)OC2` [Example 6-110, 3-((Dimethylamino)methyl)-4-(methylsulfonyl)benzyl (1-hydroxy-7-methyl-1,3-dihydrobenzo[c][1,2]oxaborole-6-carbonyl)-L-valinate], for which the IC50 lay within 21 to 999 nM in assay [1] and 0.51 to 9.99 nM in assay [2].

Take `CC(C)(C)[C@H](NC(=O)c1ccc2c(c1)B(O)OC2)C(=O)OCc1ccccc1` [Example 6-017, Benzyl (S)-2-(1-hydroxy-1,3-dihydrobenzo[c][1,2]oxaborole-6-carboxamido)-3,3-dimethylbutanoate]: the IC50 in assay [1] is at least 1000 nM; in assay [2] it was 10 to 5000 nM.

`Cc1c(C(=O)N[C@H](C(=O)OCc2cccc(N3CCN(C)CC3)n2)C(C)C)ccc2c1B(O)OC2` [Example 6-201, (6-(4-methylpiperazin-1-yl)pyridin-2-yl)methyl (1-hydroxy-7-methyl-1,3-dihydrobenzo[c][1,2]oxaborole-6-carbonyl)-L-valinate]: the IC50 was 21 to 999 nM in assay [1] and under 0.5 nM in assay [2].

For `Cc1c(C(=O)N[C@H](C(=O)OCc2ccc([S+](C)[O-])cc2)C(C)C)ccc2c1B(O)OC2` (stereo partly drawn) [Example 6-090, 4-(Methylsulfinyl)benzyl (1-hydroxy-7-methyl-1,3-dihydrobenzo[c][1,2]oxaborole-6-carbonyl)-L-valinate], the IC50 in assay [1] was 21 to 999 nM; in assay [2] it was 0.51 to 9.99 nM.

Regarding `Cc1c(C(=O)N[C@H](C(=O)OCc2ccc(C(F)(F)F)nc2)C(C)C)ccc2c1B(O)OC2` [Example 6-168, (6-(Trifluoromethyl)pyridin-3-yl)methyl (1-hydroxy-7-methyl-1,3-dihydrobenzo[c][1,2]oxaborole-6-carbonyl)-L-valinate], the IC50 in assay [1] is at most 20 nM; in assay [2], under 0.5 nM.

Regarding `Cc1c(C(=O)N[C@H](C(=O)OCc2ccc(C(=O)N3CCNCC3)cc2)C(C)C)ccc2c1B(O)OC2` [Example 6-102, 4-(Piperazine-1-carbonyl)benzyl (1-hydroxy-7-methyl-1,3-dihydrobenzo[c][1,2]oxaborole-6-carbonyl)-L-valinate], the IC50 in assay [1] was at least 1000 nM; in assay [2], 10 to 5000 nM.

Turning to `CC(C)[C@H](NC(=O)c1ccc2c(c1)B(O)OC2)C(=O)O[C@H](C)c1ccccc1` [Example 6-020, (R)-1-Phenylethyl (1-hydroxy-1,3-dihydrobenzo[c][1,2]oxaborole-6-carbonyl)-L-valinate], the IC50 is at least 1000 nM in assay [1] and 10 to 5000 nM in assay [2].

Turning to `CC(C)[C@H](NC(=O)c1ccc2c(c1)B(O)OC2)C(=O)OCc1ccc(F)cc1` [Example 6-030, 4-Fluorobenzyl (1-hydroxy-1,3-dihydrobenzo[c][1,2]oxaborole-6-carbonyl)-L-valinate], the values for the half-maximal inhibitory concentration (IC50) in assay [1] and in assay [2] were 21 to 999 nM and 0.51 to 9.99 nM, respectively.

For `Cc1c(C(=O)N[C@H](C(=O)OCC2CCN(C)CC2)C(C)C)ccc2c1B(O)OC2` [Example 6-114, (1-Methylpiperidin-4-yl)methyl (1-hydroxy-7-methyl-1,3-dihydrobenzo[c][1,2]oxaborole-6-carbonyl)-L-valinate], the IC50 in assay [1] was 21 to 999 nM; in assay [2], 0.51 to 9.99 nM.

Turning to `CCOc1c(C(=O)N[C@H](C(=O)OCc2ccc(F)cc2)C(C)C)ccc2c1B(O)OC2` [Example 6-196, 4-Fluorobenzyl (7-ethoxy-1-hydroxy-1,3-dihydrobenzo[c][1,2]oxaborole-6-carbonyl)-L-valinate], the IC50 was at least 1000 nM in assay [1] and 0.51 to 9.99 nM in assay [2].

As for `Cc1c(C(=O)NC(C(=O)OCc2ccc(F)cc2)C(C)(C)F)ccc2c1B(O)OC2` (stereo not drawn) [Example 6-091, 4-Fluorobenzyl 3-fluoro-2-(1-hydroxy-7-methyl-1,3-dihydrobenzo[c][1,2]oxaborole-6-carboxamido)-3-methylbutanoate], the IC50 was at most 20 nM in assay [1] and under 0.5 nM in assay [2].

Turning to `O=C(N[C@@H](Cc1ccccc1)C(=O)OCc1ccccc1)c1ccc2c(c1)B(O)OC2` [Example 6-009, Benzyl (1-hydroxy-1,3-dihydrobenzo[c][1,2]oxaborole-6-carbonyl)-L-phenylalaninate], the IC50 is at least 1000 nM in assay [1] and 0.51 to 9.99 nM in assay [2].

For the compound `Cc1c(C(=O)N[C@H](C(=O)OC(C(F)(F)F)C(F)(F)F)C(C)C)ccc2c1B(O)OC2` [Example 6-156, 1,1,1,3,3,3-Hexafluoropropan-2-yl (1-hydroxy-7-methyl-1,3-dihydrobenzo[c][1,2]oxaborole-6-carbonyl)-L-valinate], the values for the IC50 in assay [1] and in assay [2] were at least 1000 nM and 10 to 5000 nM, respectively.

On to `Cc1c(C(=O)N[C@H](C(=O)OC2CCN(C)CC2)C(C)C)ccc2c1B(O)OC2` [Example 6-142, 1-Methylpiperidin-4-yl (1-hydroxy-7-methyl-1,3-dihydrobenzo[c][1,2]oxaborole-6-carbonyl)-L-valinate], for which the IC50 in assay [1] is 21 to 999 nM; in assay [2] it was under 0.5 nM.

On to `Cc1c(C(=O)N[C@H](C(=O)OC[C@H]2COC(C)(C)O2)C(C)C)ccc2c1B(O)OC2` [Example 6-144, ((R)-2,2-Dimethyl-1,3-dioxolan-4-yl)methyl (1-hydroxy-7-methyl-1,3-dihydrobenzo[c][1,2]oxaborole-6-carbonyl)-L-valinate], for which the IC50 was at most 20 nM in assay [1] and 0.51 to 9.99 nM in assay [2].

These data come from patent US11578087B2, “Oxaborole esters and uses thereof” (priority 2016, dated 2023).
